Values joined by “and” are separate entries in the source; they are usually repeats but may differ in a detail not shown here. Identical values can stand only once. Like-named read-outs stand apart in the source and are kept apart here.
How the values were obtained:
[1] = test system: Shionogi mouse mammary carcinoma cells; assay: Androgenic/antiandrogenic activity on DHT-stimulated Shionogi cell growth; type: cell-based; conditions: for Shionogi VS OH-FLU: ratio of Ki hydroxyflutamide versus tested compound
rat prostate = assay: Systemic antiandrogenic activity, orchidectomized immature male rats with DHT implant: prostate weight; type: in vivo; conditions: for inhibition in vivo at 0.5 mg: Rattus norvegicus, 168 h
Experimental: (§1) Immature male rats (Crl:CD(SD)Br) 22 to 24-day old were obtained from Charles-River, Inc. (St-Constant, Quebec, Canada) and housed up to 5 per cage in plastic bins in a temperature (23±1° C.)- and light (12 h light/day, lights on at 7 h15)-controlled environment. The rats were fed rodent chow and tap water ad libitum. The day following their arrival, the animals were orchidectomized (CX) under Isoflurane anesthesia via scrotal route and randomly assigned to groups of 5 animals.
(§2) Compounds were solubilized (when possible) in dimethylsulfoxide (DMSO, 10% final concentration) and administered as suspension in 0.4% methylcellulose. […] One group of animals received the antiandrogen Flutamide as reference. The animals were killed by cervical dislocation under isoflurane anesthesia on the 8th morning following castration. The ventral prostate and seminal vesicles were rapidly dissected and weighed.
(§3) W is the weight of the prostate or the seminal vesicle.

[2] = test system: sebaceous glands of the left ear; assay: Topical antiandrogenic activity, ear sebaceous glands model in the male hamster; type: in vivo; conditions: Mesocricetus auratus, 336 h, topical on left pinna, read-out: Antiandrogenic activity in Hamster Ear Area Inh Vs Cx (%); for inhibition in vivo at 0.01 mg: 10 μg daily for 14 days; for inhibition in vivo at 0.1 mg: 100 μg daily for 14 days
Experimental: The antiandrogenic activity of compounds for topical use was determined using the ear sebaceous glands model in the male hamster.
Male Golden Syrian Hamsters (SYR) of 110-120 g were obtained from Harlan Sprague-Dawley (Madison, USA) and housed up to 2 per plastic cage in a temperature (22±3° C.) and light (12 h light/day, lights on at 7 h15)-controlled environment. The hamsters were fed with Certified Rodent Diet 5002 (pellet) and had access to tap water ad libitum. The animals were acclimatized for at least five days prior to beginning the study. Animals were randomly assigned to groups of eight hamsters. One group of hamsters were castrated under isoflurane-induced anesthesia on the day of dosing initiation (SD 1) and used as control group.
To evaluate the antiandrogenic activity, the tested compounds were applied topically on the inner part of the left ear, once daily, for 14 days. […] For animals of the castrated and intact control groups, one ten-μL vehicle was applied onto the left ear. No solution was applied on the right ear.
On Study Day 15, the hamsters were euthanized by cervical dislocation under isoflurane anesthesia. The left and right ears were collected attached together by the head skin, flat fixed on a paper and then immersed in 10% neutral buffered formalin. Punctures making a circular hole of 6 mm were made on the flat fixed ear in the region where the solution has been applied. These punch-made specimens were collected from each ear. Using a scalpel blade, the collected 6 mm round ear specimens were cut in the middle between the two cartilage ridges. The two equal parts of the ear round specimens were embedded in paraffin. After processing the tissue, the two parts were vertically embedded parallel to each other in such a way that the flat 6 mm area was facing out. From each paraffin block, one section (5 μm thick) was cut and collected on a glass slide. Thus, each slide contained two elongated sections of 6 mm length. Slides were stained with hematoxylin and eosin.
Using the video camera and the lens number X5 of the light microscope, the resulting field appearing on the screen has a length of 0.953 mm. When the first 6 mm long section was examined from the left to the right, the first and second fields were ignored and the third and fourth fields were captured for analysis by the image analyzer. Each field has the length of 0.953 mm. With the help of the screen mouse, the sebaceous glands within the whole field length (0.953 mm) were marked. Also, an area having the length of the whole field and the height between stratum granulosum and the upper edge of the cartilage was drawn.
The total area of the sebaceous glands (μm^2) in each examined field was calculated by the Image Analyser. We also measured the total area, which has the length of 0.953 mm and the height between stratum granulosum and the cartilage. In addition, the percentage of the area occupied by the glands was obtained. Thus, for each ear, two sections were cut and two fields from each section were analyzed. The total of the four readings was averaged and the mean standard error of the mean was calculated by the image analyzer. The results were expressed in μm^2 as the total surface of glands per field and also as percentage of the area occupied by the glands in the tissue.

rat seminal vesicle = assay: Systemic antiandrogenic activity, orchidectomized immature male rats with DHT implant: seminal vesicle weight; type: in vivo; conditions: for inhibition in vivo at 0.5 mg: Rattus norvegicus, 168 h
Experimental: as §1, §2, §3

Human Androgen Receptor = target: T1, Human Androgen Receptor (Homo sapiens, UniProt P10275); assay: Androgen receptor binding assay (hydroxylapatite, [3H]R1881, cytosol of transfected HEK-293 cells); conditions: for RBA human: Table 4, relative to R1881; for Androgen Receptor Binding (%) Human RBA R1881 = 100: % RBA=100×IC50 R1881/IC50 compound, transfected cells
T1 sequence (P10275 1-920): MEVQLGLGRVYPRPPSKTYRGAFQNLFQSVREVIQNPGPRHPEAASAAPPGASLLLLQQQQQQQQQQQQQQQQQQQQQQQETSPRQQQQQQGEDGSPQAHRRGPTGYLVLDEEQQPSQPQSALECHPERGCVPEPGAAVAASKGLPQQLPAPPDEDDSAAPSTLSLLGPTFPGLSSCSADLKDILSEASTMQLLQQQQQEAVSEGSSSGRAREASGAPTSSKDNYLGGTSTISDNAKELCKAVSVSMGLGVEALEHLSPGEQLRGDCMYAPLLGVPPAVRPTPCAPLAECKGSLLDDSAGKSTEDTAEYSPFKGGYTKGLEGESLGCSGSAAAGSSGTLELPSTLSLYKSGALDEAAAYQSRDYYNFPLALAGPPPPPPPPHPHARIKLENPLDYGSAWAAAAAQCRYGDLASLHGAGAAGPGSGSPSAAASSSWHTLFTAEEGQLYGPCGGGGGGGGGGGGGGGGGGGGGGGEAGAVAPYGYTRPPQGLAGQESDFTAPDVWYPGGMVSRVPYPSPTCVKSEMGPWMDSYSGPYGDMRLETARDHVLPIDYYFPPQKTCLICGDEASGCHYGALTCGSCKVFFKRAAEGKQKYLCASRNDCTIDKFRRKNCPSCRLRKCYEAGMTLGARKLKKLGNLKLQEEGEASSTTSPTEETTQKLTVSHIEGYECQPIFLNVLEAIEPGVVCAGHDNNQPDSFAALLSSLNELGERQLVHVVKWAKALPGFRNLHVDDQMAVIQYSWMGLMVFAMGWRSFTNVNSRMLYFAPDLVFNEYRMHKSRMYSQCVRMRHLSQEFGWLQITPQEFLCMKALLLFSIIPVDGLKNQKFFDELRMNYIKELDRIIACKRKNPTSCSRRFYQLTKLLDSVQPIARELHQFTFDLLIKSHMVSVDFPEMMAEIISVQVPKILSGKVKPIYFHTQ

[3] = Mus musculus, read-out: Shionogi IC50 (nM), Table 4, inhibition of DHT-stimulated Shionogi cell number
[4] = po, 0.5 mg, per os, read-out: Prostate Rat Inh % inh (0.5 mg, per os)
[5] = po, 0.5 mg, per os, read-out: SV RAT Inh % inh (0.5 mg, per os)
[6] = Mus musculus, read-out: Shionogi Antiandrogenic activity IC50 (nM), inhibition of DHT-stimulated Shionogi cell number

Compound | IC50 [1, 3] [nM] | Shionogi VS OH-FLU ([1]; Table 4) | inhibition in vivo at 0.5 mg (rat prostate; [4]) [%] | inhibition in vivo at 0.01 mg [2] [%] | inhibition in vivo at 0.1 mg [2] [%] | inhibition in vivo at 0.5 mg (rat seminal vesicle; [5]) [%] | RBA human (Human Androgen Receptor) [%] | IC50 [1, 6] [nM] | Androgen Receptor Binding (%) Human RBA R1881 = 100 (Human Androgen Receptor) | inhibition in vivo at 0.5 mg (rat prostate; sc, read-out: IN VIVO Rat s.c. (+DHT) Prostate % inhibition, s.c., 0.5 mg/animal once daily for 7 days, +DHT) [%] | IN VIVO Rat (+DHT) Prostate % inhibition (per os) (rat prostate; per os, +DHT) | Prostate Rat Inh % inh, s.c. (rat prostate; s.c.) [s.c. 0%] | inhibition in vivo at 0.5 mg (rat seminal vesicle; sc, read-out: IN VIVO Rat s.c. (+DHT) SV % inhibition, s.c., 0.5 mg/animal once daily for 7 days, +DHT) [%] | IN VIVO Rat (+DHT) SV % inhibition (per os) (rat seminal vesicle; per os, +DHT) [%] | SV RAT Inh % inh, s.c. (rat seminal vesicle; s.c.) [%] | IC50 ([1]; read-out: Shionogi Antiandrogenic activity IC50, inhibition of DHT-stimulated Shionogi cell number) [nM] | IC50 ([1]; read-out: Shionogi IC50, Table 4, inhibition of DHT-stimulated Shionogi cell number) [nM]
CCC(CC)NC(c1cccc(OCC[C@]23CCC4C(CCC5CC(=O)CC[C@@]54C)C2CC[C@@H]3O)c1)C(C)C (stereo partly drawn) [EM-6446] | 1 | 51 | 11 | 56 | 79 | 3 | 715 |  |  |  |  |  |  |  |  |  | 
CC(C)CNC(C)(C)c1cccc(OCC[C@]23CCC4C(CCC5CC(=O)CC[C@@]54C)C2CCC3=O)c1 (stereo partly drawn) [EM-6741] | 0.6 | 153 |  | 51.7 |  |  | 230 |  |  |  |  |  |  |  |  |  | 
COC1CCC2C3CCC4CC(=O)CC[C@]4(C)C3CC[C@]12CCOc1cccc(C(C)(C)NCC(C)C)c1 (stereo partly drawn) [EM-6628] | 5.9 | 14 | 15 | 58.1 |  | 0 | 796 |  |  |  |  |  |  |  |  |  | 
CC(C)CN1CCCCC1c1cccc(OCC[C@]23CCC4C(CCC5CC(=O)CC[C@@]54C)C2CC[C@@H]3O)c1 (stereo partly drawn) [EM-6493] | 3.6 | 16 | 15 | 44 | 63 | 19 | 173 | 4.3 | 92% and 173% |  |  |  |  |  |  |  | 
CCC(NC1CCCC1)c1cccc(OCC[C@]23CCC4C(CCC5CC(=O)CC[C@@]54C)C2CC[C@@H]3OC)c1 (stereo partly drawn) [EM-6640] | 18 | 5.3 | 10 | 46.3 |  | 0 | 438 |  |  |  |  |  |  |  |  |  | 
CC(C)CNC(C)(C)c1cccc(OCC[C@]23CCC4C(CCC5CC(=O)CC[C@@]54C)C2CC[C@@H]3O)c1 (stereo partly drawn) [EM-6534] | 0.23 | 267 | 9 | 48 | 84 | 16 | 112 | 0.4 | 112% |  |  |  |  |  |  |  | 
CCC(CC)N(C)C(CC)c1cccc(OCC[C@]23CCC4C5CCC(=O)C=C5CCC4C2CC[C@@H]3O)c1 (stereo partly drawn) [EM-6680] |  |  | 0 | 64.7 |  | 21 | 140 | 1.2 | 140% | 0 | 0 (p.o.) % | 0 | 40 | 21 | 40 |  | 
CC[C@H](NC1CCCCC1)c1cccc(OCC[C@]23CCC4C(CCC5CC(=O)CC[C@@]54C)C2CC[C@@H]3O)c1 (stereo partly drawn) [EM-6415] | 1.4 | 29 | 14 | 52 | 84 | 0 | 185 | 0.47 | 230% |  |  |  |  |  |  |  | 
CCCCCN1CCCCC1c1cccc(OCC[C@]23CCC4C(CCC5CC(=O)CC[C@@]54C)C2CC[C@@H]3O)c1 (stereo partly drawn) [EM-6494] | 10.5 | 5.4 | 0 |  | 68 | 1 | 97 | 10.5 | 63% and 97% |  |  |  |  |  |  |  | 
CCC[C@H](NC1CCCCC1)c1cccc(OCC[C@]23CCC4C(CCC5CC(=O)CC[C@@]54C)C2CCC3=O)c1 (stereo partly drawn) [EM-6736] | 1.8 | 43 |  | 49.5 |  |  | 154 |  |  |  |  |  |  |  |  |  | 
CCCC(NC(CC)CC)c1cccc(OCC[C@]23CCC4C(CCC5CC(=O)CC[C@@]54C)C2CCC3=O)c1 (stereo partly drawn) [EM-6842] | 0.4 | 183 | 18 | 63.8 |  | 27 | 451 |  |  |  |  |  |  |  |  |  | 
CCC[C@H](NC(CC)CC)c1cccc(OCC[C@]23CCC4C(CCC5CC(=O)CC[C@@]54C)C2CC[C@@H]3O)c1 (stereo in doubt) [EM-6445] | 0.2 | 231 | 3 |  | 96 | 0 | 336 | 0.2 | 168% |  |  |  |  |  |  |  | 
CCC(CC)NC(CC)c1cccc(OCC[C@]23CCC4C(CCC5CC(=O)CC[C@@]54C)C2CC[C@@H]3O)c1 (stereo partly drawn) [EM-6339] | 2.3 |  |  | 55 | 67 |  | 236 | 2.3 | 240% and 236% |  |  |  |  |  |  | 3 | 3
CCN(C1CCCCC1)[C@H](C)c1cccc(OCC[C@]23CCC4C(CCC5CC(=O)CC[C@@]54C)C2CC[C@@H]3O)c1 (stereo partly drawn) [EM-6414] | 4 | 1 | 6 | 55 | 64 | 28 | 71 | 4 | 121% |  |  |  |  |  |  |  | 

From patent publication US9090651B2, “Helix 12 directed pharmaceutical products” (ENDORECHERCHE, INC., priority 2004, dated 2015)
